Data from ChEMBL document CHEMBL4340530, “Peptide-based covalent inhibitors of MALT1 paracaspase” (Bioorg Med Chem Lett, 2019).
The source made the active and inactive calls. The rule behind the calls is not given here.

Key:
[1] = Drug uptake in ip dosed mouse plasma by LC-MS/MS analysis; format: ADME, organism-based; settings: in vivo
[2] = target: T1, Cathepsin K (Homo sapiens) (UniProt P43235); test: Inhibition of cathepsin K (unknown origin) at 10 uM relative to control
T1 sequence (whole entry): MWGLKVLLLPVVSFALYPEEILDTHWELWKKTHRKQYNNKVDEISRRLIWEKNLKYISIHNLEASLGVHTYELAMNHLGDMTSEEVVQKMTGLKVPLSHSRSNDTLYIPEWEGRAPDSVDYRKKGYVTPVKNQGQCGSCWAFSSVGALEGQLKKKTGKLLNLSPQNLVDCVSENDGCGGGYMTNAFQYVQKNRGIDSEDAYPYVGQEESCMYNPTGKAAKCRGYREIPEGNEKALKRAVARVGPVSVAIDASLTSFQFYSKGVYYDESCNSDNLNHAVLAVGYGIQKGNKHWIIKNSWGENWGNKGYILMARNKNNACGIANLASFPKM

[3] = target: T2, Calpain1/2 (Homo sapiens) (UniProt P17655+P07384); test: Inhibition of calpain (unknown origin) at 100 nM relative to control; format: protein assay
[4] = system: OCI-Ly3; test: Antitumor activity against human OCI-LY3 cells xenografted in ip dosed NOD Cg-rkdc SCID Il2rgtm1Wjl/SzJ mouse assessed as effect on tumor growth administered twice daily for 16 to 24 days measured 4 hrs post-last dose; format: functional, organism-based
[5] = target: Tryptase beta-2 (Homo sapiens) (UniProt P20231); test: Inhibition of tryptase b2 (unknown origin) at 100 nM relative to control
[6] = target: Tryptase beta-2 (Homo sapiens) (UniProt P20231); test: Inhibition of tryptase b2 (unknown origin) at 10 uM relative to control
[7] = target: T2, Calpain1/2 (Homo sapiens); test: Inhibition of calpain (unknown origin) at 10 uM relative to control; format: protein assay
[8] = target: T3, Trypsin (Homo sapiens) (UniProt P07477+P07478+P35030); test: Inhibition of trypsin (unknown origin) at 1 uM relative to control; format: protein assay
[9] = target: Legumain (Homo sapiens) (UniProt Q99538); test: Inhibition of legumain (unknown origin) at 10 uM
[10] = target: T1, Cathepsin K (Homo sapiens); test: Inhibition of cathepsin K (unknown origin) at 100 nM relative to control
[11] = target: Procathepsin L (Homo sapiens) (UniProt P07711); test: Inhibition of cathepsin L (unknown origin) at 10 uM relative to control
[12] = target: Caspase-4 (Homo sapiens) (UniProt P49662); test: Inhibition of caspase-4 (unknown origin) at 10 uM
[13] = system: OCI-Ly3; test: Antiproliferative activity against human OCI-LY3 cells assessed as growth inhibition treated every 48 hrs measured after 96 hrs by CellTiter-Glo assay; format: functional
[14] = target: Tryptase beta-2 (Homo sapiens) (UniProt P20231); test: Inhibition of tryptase b2 (unknown origin) at 1 uM relative to control
[15] = target: Caspase-7 (Homo sapiens) (UniProt P55210); test: Inhibition of caspase-7 (unknown origin) at 10 uM
[16] = target: Cathepsin D (Homo sapiens) (UniProt P07339); test: Inhibition of cathepsin D (unknown origin) at 10 uM
[17] = target: Prothrombin (Homo sapiens) (UniProt P00734); test: Inhibition of thrombin (unknown origin) at 10 uM relative to control
[18] = Half life in mouse plasma; format: ADME, cell-free
[19] = system: OCI-Ly1; test: Antitumor activity against human OCI-LY1 cells xenografted in ip dosed NOD.CB17-Prkdc SCID mouse assessed as effect on tumor growth administered twice daily for 16 to 24 days measured 4 hrs post-last dose; format: functional, organism-based
[20] = target: T3, Trypsin (Homo sapiens); test: Inhibition of trypsin (unknown origin) at 10 uM relative to control; format: protein assay
[21] = target: Cathepsin S (Homo sapiens) (UniProt P25774); test: Inhibition of cathepsin S (unknown origin) at 10 uM relative to control
Chain of Cathepsin S (Homo sapiens) (P25774 115-331 limits assumed): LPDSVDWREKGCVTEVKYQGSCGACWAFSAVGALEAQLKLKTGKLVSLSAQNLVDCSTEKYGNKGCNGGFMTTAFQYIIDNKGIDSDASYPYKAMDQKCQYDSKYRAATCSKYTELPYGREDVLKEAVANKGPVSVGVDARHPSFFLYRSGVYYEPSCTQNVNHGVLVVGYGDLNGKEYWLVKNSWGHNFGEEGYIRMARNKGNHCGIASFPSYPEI

Chain of Tryptase beta-2 (Homo sapiens) (P20231 whole entry): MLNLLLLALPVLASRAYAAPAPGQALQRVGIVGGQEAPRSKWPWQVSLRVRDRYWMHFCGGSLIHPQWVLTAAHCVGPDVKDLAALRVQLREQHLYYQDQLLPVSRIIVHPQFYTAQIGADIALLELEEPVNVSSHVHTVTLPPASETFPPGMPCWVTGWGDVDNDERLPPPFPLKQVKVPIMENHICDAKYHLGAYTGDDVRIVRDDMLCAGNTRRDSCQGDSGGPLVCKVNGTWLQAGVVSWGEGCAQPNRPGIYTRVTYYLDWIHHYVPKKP
T2 sequence (P07384 whole entry, looked up): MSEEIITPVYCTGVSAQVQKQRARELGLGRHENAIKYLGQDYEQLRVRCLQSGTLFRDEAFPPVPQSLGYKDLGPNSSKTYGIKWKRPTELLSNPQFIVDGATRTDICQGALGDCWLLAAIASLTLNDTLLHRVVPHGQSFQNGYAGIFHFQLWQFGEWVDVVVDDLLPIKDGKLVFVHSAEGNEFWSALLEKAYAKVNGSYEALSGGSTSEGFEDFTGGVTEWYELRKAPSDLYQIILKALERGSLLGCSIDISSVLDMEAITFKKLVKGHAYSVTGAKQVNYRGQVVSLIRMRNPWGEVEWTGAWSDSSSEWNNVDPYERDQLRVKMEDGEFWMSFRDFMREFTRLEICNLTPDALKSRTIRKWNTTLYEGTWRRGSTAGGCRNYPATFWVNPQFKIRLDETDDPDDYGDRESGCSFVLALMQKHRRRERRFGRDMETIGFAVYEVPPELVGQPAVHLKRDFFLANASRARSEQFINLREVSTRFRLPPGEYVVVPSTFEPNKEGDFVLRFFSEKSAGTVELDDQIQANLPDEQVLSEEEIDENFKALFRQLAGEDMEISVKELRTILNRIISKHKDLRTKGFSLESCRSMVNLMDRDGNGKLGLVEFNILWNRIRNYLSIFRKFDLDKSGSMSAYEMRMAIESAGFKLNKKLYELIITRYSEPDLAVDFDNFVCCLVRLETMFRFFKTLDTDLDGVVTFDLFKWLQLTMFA
T2 sequence (P17655 whole entry, looked up): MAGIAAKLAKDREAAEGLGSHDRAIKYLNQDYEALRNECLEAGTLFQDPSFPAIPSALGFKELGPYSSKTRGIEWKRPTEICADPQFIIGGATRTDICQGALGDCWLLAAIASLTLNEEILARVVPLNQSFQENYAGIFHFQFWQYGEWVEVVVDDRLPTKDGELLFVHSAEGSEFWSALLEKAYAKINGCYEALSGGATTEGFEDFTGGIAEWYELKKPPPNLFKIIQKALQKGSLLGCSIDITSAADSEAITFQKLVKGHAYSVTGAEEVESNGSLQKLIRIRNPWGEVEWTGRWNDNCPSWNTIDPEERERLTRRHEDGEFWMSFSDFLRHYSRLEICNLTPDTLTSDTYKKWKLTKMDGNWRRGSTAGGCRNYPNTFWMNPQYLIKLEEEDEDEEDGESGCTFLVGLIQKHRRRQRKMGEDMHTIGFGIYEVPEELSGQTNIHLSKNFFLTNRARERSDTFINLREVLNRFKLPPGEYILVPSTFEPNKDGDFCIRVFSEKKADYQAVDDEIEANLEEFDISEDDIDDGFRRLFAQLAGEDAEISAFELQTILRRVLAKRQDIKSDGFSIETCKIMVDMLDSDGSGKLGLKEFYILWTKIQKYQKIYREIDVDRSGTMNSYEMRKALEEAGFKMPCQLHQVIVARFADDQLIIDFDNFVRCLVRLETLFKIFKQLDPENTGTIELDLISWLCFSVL
Chain of Caspase-7 (Homo sapiens) (P55210 24-198 limits assumed): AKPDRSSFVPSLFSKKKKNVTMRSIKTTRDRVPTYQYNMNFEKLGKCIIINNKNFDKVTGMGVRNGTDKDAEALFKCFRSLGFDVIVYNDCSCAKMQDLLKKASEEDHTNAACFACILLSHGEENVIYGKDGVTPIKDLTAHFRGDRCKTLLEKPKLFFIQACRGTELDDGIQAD
Chain of Caspase-7 (Homo sapiens) (P55210 207-303 limits assumed): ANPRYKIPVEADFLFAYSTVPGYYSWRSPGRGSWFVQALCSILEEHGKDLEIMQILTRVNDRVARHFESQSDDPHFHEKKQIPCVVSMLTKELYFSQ
Chain of Procathepsin L (Homo sapiens) (P07711 114-333 limits assumed): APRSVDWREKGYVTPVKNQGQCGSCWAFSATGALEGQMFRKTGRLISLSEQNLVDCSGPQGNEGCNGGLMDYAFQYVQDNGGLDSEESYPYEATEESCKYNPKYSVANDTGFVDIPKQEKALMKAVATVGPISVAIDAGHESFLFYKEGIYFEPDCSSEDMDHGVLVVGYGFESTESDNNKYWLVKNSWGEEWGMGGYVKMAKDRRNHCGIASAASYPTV
Chain of Cathepsin D (Homo sapiens) (P07339 65-162 limits assumed): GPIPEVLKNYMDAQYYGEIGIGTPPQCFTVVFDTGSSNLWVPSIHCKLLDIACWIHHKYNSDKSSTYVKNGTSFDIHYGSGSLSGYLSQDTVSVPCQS
Chain of Cathepsin D (Homo sapiens) (P07339 169-412 limits assumed): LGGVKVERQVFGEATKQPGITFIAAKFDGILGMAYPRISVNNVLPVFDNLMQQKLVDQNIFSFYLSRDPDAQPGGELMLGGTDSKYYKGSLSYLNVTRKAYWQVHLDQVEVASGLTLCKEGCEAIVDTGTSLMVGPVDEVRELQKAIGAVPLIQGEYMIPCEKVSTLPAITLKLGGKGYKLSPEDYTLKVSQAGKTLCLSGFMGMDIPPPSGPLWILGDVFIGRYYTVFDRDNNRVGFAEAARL
Chain of Legumain (Homo sapiens) (Q99538 whole entry): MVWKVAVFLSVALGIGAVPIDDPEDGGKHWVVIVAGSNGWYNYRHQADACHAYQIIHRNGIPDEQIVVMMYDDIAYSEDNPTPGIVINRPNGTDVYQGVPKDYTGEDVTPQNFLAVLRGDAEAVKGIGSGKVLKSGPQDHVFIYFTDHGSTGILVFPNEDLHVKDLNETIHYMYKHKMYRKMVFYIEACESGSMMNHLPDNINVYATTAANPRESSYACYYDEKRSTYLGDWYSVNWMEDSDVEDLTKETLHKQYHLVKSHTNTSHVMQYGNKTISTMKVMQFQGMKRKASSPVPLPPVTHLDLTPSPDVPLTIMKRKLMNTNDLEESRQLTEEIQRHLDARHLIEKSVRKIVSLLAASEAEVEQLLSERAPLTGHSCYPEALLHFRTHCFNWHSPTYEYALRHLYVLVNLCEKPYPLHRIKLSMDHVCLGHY
Chain of Caspase-4 (Homo sapiens) (P49662 81-270 limits assumed): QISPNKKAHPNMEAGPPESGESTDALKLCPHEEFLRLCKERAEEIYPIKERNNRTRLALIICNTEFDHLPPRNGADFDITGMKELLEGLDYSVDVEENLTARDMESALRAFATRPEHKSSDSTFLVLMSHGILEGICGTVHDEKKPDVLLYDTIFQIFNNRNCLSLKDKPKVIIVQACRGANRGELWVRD
Chain of Caspase-4 (Homo sapiens) (P49662 290-377 limits assumed): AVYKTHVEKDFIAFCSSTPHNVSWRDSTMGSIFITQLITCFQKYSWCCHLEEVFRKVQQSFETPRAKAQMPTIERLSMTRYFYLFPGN

- Drug uptake [1]: Active
- inhibition [2]: 98.7%
- inhibition [3]: 23.6%
- inhibition [5]: 6.1%
- inhibition [6]: 79%
- inhibition [7]: 105%
- inhibition [8]: 98%
- inhibition [9]: Active
- inhibition [10]: 63.2%
- inhibition [11]: 44.9%
- inhibition [12]: Active
- GI50 [13]: 130 nM
- inhibition [14]: 14%
- inhibition [15]: Active
- inhibition [16]: Active
- inhibition [17]: 83%
- t1/2 [18]: 4.3 h
- inhibition [20]: 95.3%
- inhibition [21]: 99.1%
SMILES: CC(C)[C@H](NC(=O)c1ccc(Br)cc1)C(=O)N1CCC[C@H]1C(=O)N[C@@H](CCCNC(=N)N)C(=O)CF
- Activity [4]: Active
- Activity [19]: Active
